According to US20240189279A1, “IMMUNOMODULATORY COMPOSITIONS AND METHODS OF USE THEREOF” (THE TEXAS A&M UNIVERSITY SYSTEM, priority 2022, published 2024):
“Also recorded” adds a separate entry of the source.

Key:
[1] = test system: liver bile acids; assay: Liver bile acid analysis (targeted LC-MS) in WD mice; assay type: in vivo, mice (male B6 129SF1/J)
Excerpt: Animal experiments. Male B6 129SF1/J mice at 6 weeks of age were obtained from Jackson Laboratories (Bar Harbor, ME). Mice were acclimatized to the animal facility for one week. At the start of the experiment, mice were randomly divided into four groups (n=10 for each group). Three of the four groups were fed ad libitum a Western diet (WD) with 40% Kcal from fat and containing 0.15% cholesterol (D12079B, Research Diets) and a sugar water (SW) solution (23.1 g/L d-fructose+18.9 g/L d-glucose) as previously described (DIAMOND model (15)). After 8 weeks, the three groups of WD-fed mice were randomly selected for treatment with vehicle (WD group) or low (WD-50 group) or high dose (WD-100 group) of […]. The WD group was fed WD and drank sugar water. The WD-50 and WD-100 groups were fed WD and drank sugar water containing, respectively, 50 or 100 mg […] per kg body weight. The treatments were continued for another 8 weeks. Water bottles containing SW and […] or only SW were changed every other day. A fourth group of mice was fed a low-fat control diet (D12450B, Research Diets) and normal water for 16 weeks (CN group) (FIG. 9A). FIG. 9A presents the study design. […] The supernatant was transferred into a new sample tube and analyzed by LC-MS. […] The calculated bile acid concentrations were normalized to the level of spiked internal standard for each sample.

[2] = test system: inflammatory cytokines in liver tissue; assay: Liver cytokine measurements (bead-based 13-cytokine panel) in WD mice; assay type: in vivo, mice (male B6 129SF1/J); conditions: week 16
Excerpt: Animal experiments. Male B6 129SF1/J mice at 6 weeks of age were obtained from Jackson Laboratories (Bar Harbor, ME). Mice were acclimatized to the animal facility for one week. At the start of the experiment, mice were randomly divided into four groups (n=10 for each group). Three of the four groups were fed ad libitum a Western diet (WD) with 40% Kcal from fat and containing 0.15% cholesterol (D12079B, Research Diets) and a sugar water (SW) solution (23.1 g/L d-fructose+18.9 g/L d-glucose) as previously described (DIAMOND model (15)). After 8 weeks, the three groups of WD-fed mice were randomly selected for treatment with vehicle (WD group) or low (WD-50 group) or high dose (WD-100 group) of […]. The WD group was fed WD and drank sugar water. The WD-50 and WD-100 groups were fed WD and drank sugar water containing, respectively, 50 or 100 mg […] per kg body weight. The treatments were continued for another 8 weeks. Water bottles containing SW and […] or only SW were changed every other day. […] The supernatant was transferred into a new tube and the total protein concentration was measured with the BCA protein assay (Thermo Fisher Scientific, Waltham, MA). A panel of 13 cytokines was quantified with a bead-based ELISA kit (BioLegend, San Diego, CA) following the manufacturer's protocol. […]

O=C([O-])Cc1c[nH]c2ccccc12.[Na+] [I3A, Indole-3-acetate sodium salt]
liver bile acid profile ([1]; WD-50 group vs WD): did not show any significant changes in liver bile acid profile
liver total bile acids and primary bile acids ([1]; WD-100 group vs WD (WD: reduced total, increased primary bile acids)): showed the opposite trend
liver IL-10 ([2]; I3A treated vs WD): downregulated this cytokine
expression of pro-inflammatory cytokines in liver (panel, TNFα, IL-6, Mcp-1 etc.) ([2]; WD-50 and WD-100 vs WD, sodium salt): dose-dependently attenuated the production of type 1, 2 and 3 cytokines; also recorded: reduced the expression of these cytokines in a dose-dependent manner
